This passage reports IC50 results from patent US9255100B2 (BAYER INTELLECTUAL PROPERTY GMBH, priority 2010, dated 2016).

The target of this experiment is T1, N-terminally GST-tagged human full length recombinant Mps-1 kinase (Homo sapiens, UniProt P33981).
T1 construct: N-terminally GST-tagged human full length recombinant Mps-1 kinase; purchased Invitrogen, Karslruhe, Germany PV4071
T1 sequence (P33981 1-857): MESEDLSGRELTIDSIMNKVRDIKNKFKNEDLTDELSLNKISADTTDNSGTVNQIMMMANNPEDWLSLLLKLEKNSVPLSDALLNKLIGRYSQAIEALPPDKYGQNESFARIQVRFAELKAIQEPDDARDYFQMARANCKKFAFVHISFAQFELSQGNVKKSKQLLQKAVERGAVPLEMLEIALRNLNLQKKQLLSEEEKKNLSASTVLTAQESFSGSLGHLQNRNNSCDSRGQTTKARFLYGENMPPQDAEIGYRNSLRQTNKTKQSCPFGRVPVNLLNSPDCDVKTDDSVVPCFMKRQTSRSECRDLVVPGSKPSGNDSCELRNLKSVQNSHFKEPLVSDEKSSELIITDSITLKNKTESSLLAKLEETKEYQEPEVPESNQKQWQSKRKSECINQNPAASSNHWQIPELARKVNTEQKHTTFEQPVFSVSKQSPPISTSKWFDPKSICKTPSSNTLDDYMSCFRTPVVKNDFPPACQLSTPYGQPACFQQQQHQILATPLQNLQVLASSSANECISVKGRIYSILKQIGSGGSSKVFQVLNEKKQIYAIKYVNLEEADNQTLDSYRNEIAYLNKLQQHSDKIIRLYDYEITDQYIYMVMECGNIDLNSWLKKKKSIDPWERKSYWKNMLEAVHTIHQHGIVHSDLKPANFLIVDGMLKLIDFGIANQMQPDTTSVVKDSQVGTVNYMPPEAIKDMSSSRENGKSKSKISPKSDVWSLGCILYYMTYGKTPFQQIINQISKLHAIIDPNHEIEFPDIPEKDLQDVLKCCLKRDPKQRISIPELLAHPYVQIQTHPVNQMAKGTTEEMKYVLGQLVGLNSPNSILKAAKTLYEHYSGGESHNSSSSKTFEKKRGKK
Nature of the experiment: Mps-1 kinase assay (TR-FRET). Type of experiment: biochemical. Particulars: Mps1 IC50 [nM], 10 μM ATP, 1 μM peptide substrate, 60 min at 22° C. In a few lines: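 GST-tagged full-length recombinant Mps-1 at about 1 nM final, adjusted per lot for linear range, phosphorylated a biotinylated peptide. Product bound Eu-anti-phospho(Ser/Thr) antibody over 1 h at 22° C and was read by TR-FRET to streptavidin-XLent. Compounds scored for kinase inhibition.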
For the compound `Cc1cc(C)cc(Oc2cc(NCC(C)(C)O)c3ncc(-c4ccc(C(=O)NC5CC5)c(C)c4)n3n2)c1` [Example 96, N-cyclopropyl-4-{6-(3,5-dimethylphenoxy)-8-[(2-hydroxy-2-methylpropyl)amino]imidazo[1,2-b]pyridazin-3-yl}-2-methylbenzamide], the IC50 is 0.8 nM. For `Cc1cccc(Oc2cc(NCC(C)(C)O)c3ncc(-c4ccc(C(=O)NC5CC5)c(C)c4)n3n2)c1` [Example 97, N-cyclopropyl-4-{8-[(2-hydroxy-2-methylpropyl)amino]-6-(3-methylphenoxy)imidazo[1,2-b]pyridazin-3-yl}-2-methylbenzamide] the value was 0.2 nM; for `NS(=O)(=O)CCNc1cc(Cl)nn2c(-c3ccc(C(=O)NC4CC4)cc3)cnc12` [Example 98, 4-{6-Chloro-8-[(2-sulfamoylethyl)amino]imidazo[1,2-b]pyridazin-3-yl}-N-cyclopropylbenzamide], 52.3 nM. With `Cc1cc(-c2cnc3c(NCC(C)C)cc(Cl)nn23)ccc1C(=O)NC1CC1` [Example 99, 4-{6-Chloro-8-[(2-methylpropyl)amino]imidazo[1,2-b]pyridazin-3-yl}-N-cyclopropyl-2-methylbenzamide] the figure was 29.5 nM; with `CC(C)CNc1cc(-c2cccc3ccccc23)nn2c(-c3ccc(C(=O)NC4CC4)cc3)cnc12` [Example 102, N-cyclopropyl-4-{8-[(2-methylpropyl)amino]-6-(naphthalen-1-yl)imidazo[1,2-b]pyridazin-3-yl}benzamide], 24.6 nM; with `CC(C)CNc1cc(-c2cccc(CO)c2)nn2c(-c3ccc(C(=O)NC4CC4)cc3)cnc12` [Example 103, N-cyclopropyl-4-{6-[3-(hydroxymethyl)phenyl]-8-[(2-methylpropyl)amino]imidazo[1,2-b]pyridazin-3-yl}benzamide], less than 1 nM. Regarding `CC(C)CNc1cc(-c2ccc(F)cc2)nn2c(-c3ccc(C(=O)NC4CC4)cc3)cnc12` [Example 104, N-cyclopropyl-4-{6-(4-fluorophenyl)-8-[(2-methylpropyl)amino]imidazo[1,2-b]pyridazin-3-yl}benzamide], the IC50 is less than 1 nM. For `Cc1cccc(-c2cc(NCC(C)C)c3ncc(-c4ccc(C(=O)NC5CC5)cc4)n3n2)c1` [Example 105, N-cyclopropyl-4-{6-(3-methylphenyl)-8-[(2-methylpropyl)amino]imidazo[1,2-b]pyridazin-3-yl}benzamide] the value was 3.5 nM.

With `Cc1cccc(-c2cc(NCC(C)C)c3ncc(-c4ccc(C(=O)NC5CC5)cc4)n3n2)c1C` [Example 106, N-cyclopropyl-4-{6-(2,3-dimethylphenyl)-8-[(2-methylpropyl)amino]imidazo[1,2-b]pyridazin-3-yl}benzamide], the half-maximal inhibitory concentration (IC50) was 8.9 nM. Regarding `CC(=O)Nc1ccccc1-c1cc(NCC(C)C)c2ncc(-c3ccc(C(=O)NC4CC4)cc3)n2n1` [Example 107, 4-{6-[2-(Acetylamino)phenyl]-8-[(2-methylpropyl)amino]imidazo[1,2-b]pyridazin-3-yl}-N-cyclopropylbenzamide], the 50% inhibitory concentration (IC50) is 35.5 nM. Consider `CC(C)CNc1cc(-c2cnc3ccccc3c2)nn2c(-c3ccc(C(=O)NC4CC4)cc3)cnc12` [Example 108, N-cyclopropyl-4-{8-[(2-methylpropyl)amino]-6-(quinolin-3-yl)imidazo[1,2-b]pyridazin-3-yl} benzamide], for which the 50% inhibitory concentration (IC50) came out at 7 nM. As for `CC(C)CNc1cc(-c2ccc(C(=O)N(C)C)cc2)nn2c(-c3ccc(C(=O)NC4CC4)cc3)cnc12` [Example 109, 4-{3-[4-(Cyclopropylcarbamoyl)phenyl]-8-[(2-methylpropyl)amino]imidazo[1,2-b]pyridazin-6-yl}-N,N-dimethylbenzamide], the IC50 stood at 2.1 nM.

In the case of `Cc1ccccc1-c1cc(NCC(C)C)c2ncc(-c3ccc(C(=O)NC4CC4)cc3)n2n1` [Example 110], the concentration for half-maximal inhibition (IC50) was 1.3 nM. With `CC(C)CNc1cc(-c2ccnc3ccccc23)nn2c(-c3ccc(C(=O)NC4CC4)cc3)cnc12` [Example 112, N-cyclopropyl-4-{8-[(2-methylpropyl)amino]-6-(quinolin-4-yl)imidazol [1,2-b]pyridazin-3-yl} benzamide], the concentration for half-maximal inhibition (IC50) stood at 5.1 nM.

On to `CC(C)CNc1cc(-c2ccc(C(N)=O)cc2)nn2c(-c3ccc(C(=O)NC4CC4)cc3)cnc12` [Example 113, 4-{6-(4-Carbamoylphenyl)-8-[(2-methylpropyl)amino]imidazo[1,2-b]pyridazin-3-yl}-N-cyclopropylbenzamide], for which the IC50 stood at 2 nM. With `CC(C)CNc1cc(-c2cccc(C(N)=O)c2)nn2c(-c3ccc(C(=O)NC4CC4)cc3)cnc12` [Example 114, 4-{6-(3-Carbamoylphenyl)-8-[(2-methylpropyl)amino]imidazo[1,2-b]pyridazin-3-yl}-N-cyclopropylbenzamide] the figure was less than 1 nM; with `CC(C)CNc1cc(-c2cncc3ccccc23)nn2c(-c3ccc(C(=O)NC4CC4)cc3)cnc12` [Example 115, N-cyclopropyl-4-{6-(isoquinolin-4-yl)-8-[(2-methylpropyl)amino]imidazo[1,2-b]pyridazin-3-yl}benzamide], 27.5 nM; with `CC(C)CNc1cc(-c2ccc(C(=O)NC3CC3)cc2)nn2c(-c3ccc(C(=O)NC4CC4)cc3)cnc12` [Example 116, 4,4′-{8-[(2-Methylpropyl)amino]imidazo[1,2-b]pyridazine-3,6-diyl} bis(N-cyclopropylbenzamide)], 4 nM.

Take `CC(C)CNc1cc(-c2cnn(C)c2)nn2c(-c3ccc(C(=O)NC4CC4)cc3)cnc12` [Example 117, N-cyclopropyl-4-{8-[(2-methylpropyl)amino]-6-(1-methyl-1H-pyrazol-4-yl)imidazo[1,2-b]pyridazin-3-yl}benzamide]: the IC50 was found to be 3.3 nM. In the case of `CC(C)CNc1cc(-c2cccc3cnccc23)nn2c(-c3ccc(C(=O)NC4CC4)cc3)cnc12` [Example 118, N-cyclopropyl-4-{6-(isoquinolin-5-yl)-8-[(2-methylpropyl)amino]imidazo[1,2-b]pyridazin-3-yl}benzamide], the half-maximal inhibitory concentration (IC50) is 4.3 nM. With `CNC(=O)c1cccc(-c2cc(NCC(C)C)c3ncc(-c4ccc(C(=O)NC5CC5)cc4)n3n2)c1` [Example 119, 3-{3-[4-(Cyclopropylcarbamoyl)phenyl]-8-[(2-methylpropyl)amino]imidazo[1,2-b]pyridazin-6-yl}-N-methylbenzamide] the figure was less than 1 nM; with `CC(C)CNc1cc(-c2ccc(C(=O)NC(C)C)cc2)nn2c(-c3ccc(C(=O)NC4CC4)cc3)cnc12` [Example 120, 4-{3-[4-(Cyclopropylcarbamoyl)phenyl]-8-[(2-methylpropyl)amino]imidazo[1,2-b]pyridazin-6-yl}-N-(propan-2-yl)benzamide], 2.5 nM. `CC(C)CNc1cc(-c2cccs2)nn2c(-c3ccc(C(=O)NC4CC4)cc3)cnc12` [Example 121, N-cyclopropyl-4-{8-[(2-methylpropyl)amino]-6-(thiophen-2-yl)imidazo [1,2-b]pyridazin-3-yl} benzamide]: the IC50 was 1.8 nM. `CC(C)CNc1cc(-c2ccsc2)nn2c(-c3ccc(C(=O)NC4CC4)cc3)cnc12` [Example 122, N-cyclopropyl-4-{8-[(2-methylpropyl)amino]-6-(thiophen-3-yl)imidazo [1,2-b]pyridazin-3-yl} benzamide]: the IC50 is 2.9 nM.

For orientation: IC50 means the concentration that gives 50% inhibition.
